This is an account of results in EP0378255B1, “2-Aminopyrimidinone derivatives” (JANSSEN PHARMACEUTICA N.V., priority 1989, dated 1990).

Where two headings read alike, the source gives them in different places.

One assay concerns Wistar rats. The note with it: separated group of 8 rats, cited from earlier work.
The next assay deals with Apomorphine. Put plainly: Combined Apomorphine, Tryptamine and Norepinephrine (ATN) test in rats: apomorphine part. In kind it is in vivo. The note with it: Rattus norvegicus; read-out: Combined ATN test in rats ED₅₀ values (APO).
Assay [1] has as its system compound 48/80. Put plainly: Protection of Rats from compound 48/80 induced lethality (antihistaminic activity). In kind it is in vivo. The note with it: Rattus norvegicus, read-out: Compound 48/80 tests ED₅₀ values Lethality. The procedure: (§1) Int. Pharmacodyn. Ther., 227, 238-253, 1977. Further the activity of the subject compounds as serotonin antagonists is evidenced by the experimental data obtained in the "Gastric Lesions induced by compound 48/80 in rats" test, described in U.S.-4,335,127. […] All tests were carried out following the procedures described in the cited references and the experimental data are shown in Table 8.

The next assay relates to Tryptamine. Briefly: Combined Apomorphine, Tryptamine and Norepinephrine (ATN) test in rats: tryptamine part. The class given is in vivo. The conditions noted are these: Rattus norvegicus.
The test system of assay [2] is compound 48/80. Put plainly: Gastric Lesions induced by compound 48/80 in rats (serotonin antagonism). The class given is in vivo. The note with it: Rattus norvegicus, read-out: Compound 48/80 tests ED₅₀ values Gastric lesions. The procedure: as §1
The test system of the next assay is Norepinephrine. Briefly: Combined Apomorphine, Tryptamine and Norepinephrine (ATN) test in rats: norepinephrine part. The class given is in vivo. The conditions noted are these: Rattus norvegicus; read-out: Combined ATN test in rats ED₅₀ values (NOR). Here is the method: as §1

As to `Cc1nc2sccn2c(=O)c1CCN1CCC(=C(c2ccc(F)cc2)c2ccc(F)cc2)CC1` [ritanserin, 6-[2-[4-[bis(4-fluorophenyl)methylene]-1-piperidinyl]ethyl]-7-methyl-5H-thiazolo[3,2-a]pyrimidin-5-one], the “effect on SWS2” value in the assay on Wistar rats (0.63 mg/kg, for 8 h, at the expense of W, SWS1 and PS) is “significant increase of SWS2”. The “effects on sleep-wakefulness patterns” value with Wistar rats (doses of 0.04 and 0.16 mg/kg) is reported as “no major effects on sleep-wakefulness patterns”.

Take `Cc1nc2n(C)ncn2c(=O)c1CCN1CCC(c2noc3cc(F)ccc23)CC1` [Compound 89]: the ED50 is 0.08 mg/kg in the assay on Apomorphine; 0.02 mg/kg in the assay on compound 48/80 [1]; 0.08 mg/kg in the assay on Tryptamine (convulsions, read-out: Combined ATN test in rats ED₅₀ values (TRY) convulsions); ≤ 0.0025 mg/kg with Tryptamine (hyperaemia, read-out: Combined ATN test in rats ED₅₀ values (TRY) hyperaemia); 0.16 mg/kg in the assay on compound 48/80 [2]; 0.31 mg/kg in the assay with Norepinephrine.
